Reference: patent US20020035061A1, “COMPOSITIONS AND METHODS FOR TREATING INFECTIONS USING CATIONIC PEPTIDES ALONE OR IN COMBINATION WITH ANTIBIOTICS” (priority 1996, published 2002)

Tests used:
bacterial isolates = assay: microbe, parasite or virus in culture; format: cell-based
[1] = test system: vancomycin / teicoplanin resistant enterococci; assay: microbe, parasite or virus in culture; format: cell-based; conditions: for Peptide MIC Alone: Amikacin section; for FIC: peptide + Amikacin

KKWWRRALQGLKTAGPAIQSVLNK [MBI 21A2]
8 µg/mL: Peptide MIC Alone (bacterial isolates; 1. Amikacin, A. baumannii ABI001) | Peptide MIC Alone (bacterial isolates; 1. Amikacin, A. baumannii ABI003) | Peptide MIC Alone (bacterial isolates; 1. Amikacin, P. aeruginosa PA022) | Peptide MIC Alone (bacterial isolates; 4. Gentamicin, A. baumannii ABI002) | Peptide MIC Alone (bacterial isolates; 4. Gentamicin, P. aeruginosa PA022) | Peptide MIC Alone (bacterial isolates; 4. Gentamicin, S. aureus SA025 MRSA) | Amikacin MIC + Peptide (bacterial isolates; A. baumannii ABI003) | Piperacillin MIC + Peptide (bacterial isolates; E. coli 1) | Piperacillin MIC + Peptide (bacterial isolates; P. aeruginosa 23) | Gentamicin MIC + Peptide (bacterial isolates; P. aeruginosa PA022) | Ciprofloxacin MIC + Peptide (bacterial isolates; S. aureus SA93) | Amikacin MIC + Peptide ([1]; E. faecalis EFS008)
16 µg/mL: Peptide MIC Alone (bacterial isolates; 1. Amikacin, S. maltophilia SMA018) | Peptide MIC Alone (bacterial isolates; 3. Ciprofloxacin, S. aureus SA25) | Peptide MIC Alone (bacterial isolates; 3. Ciprofloxacin, S. aureus SA93) | Peptide MIC Alone (bacterial isolates; 4. Gentamicin, S. maltophilia SMA019) | Peptide MIC Alone (bacterial isolates; 4. Gentamicin, S. maltophilia SMA020) | Peptide MIC Alone (bacterial isolates; 4. Gentamicin, S. maltophilia SMA021) | Gentamicin MIC + Peptide (bacterial isolates; A. baumannii ABI002) | Peptide MIC + Amikacin (bacterial isolates; E. faecium EFM004) | Peptide MIC + Piperacillin (bacterial isolates; P. aeruginosa 23) | Amikacin MIC + Peptide (bacterial isolates; P. aeruginosa PA022) | Peptide MIC + Ciprofloxacin (bacterial isolates; P. aeruginosa PA41) | Peptide MIC + Piperacillin (bacterial isolates; S. maltophilia 6) | Peptide MIC + Piperacillin (bacterial isolates; S. maltophilia 14) | Gentamicin MIC + Peptide (bacterial isolates; S. maltophilia SMA019) | Gentamicin MIC + Peptide (bacterial isolates; S. maltophilia SMA020) | Gentamicin MIC + Peptide (bacterial isolates; S. maltophilia SMA021) | Piperacillin MIC + Peptide (bacterial isolates; S. marcescens 1) | Peptide MIC + Amikacin ([1]; E. faecalis EFS008)
0.5 µg/mL: Peptide MIC + Gentamicin (bacterial isolates; A. baumannii ABI002) | Ciprofloxacin MIC + Peptide (bacterial isolates; S. aureus SA25)
0.19: FIC (bacterial isolates; peptide + Piperacillin, P. aeruginosa 23) | FIC ([1]; E. faecalis EFS008)
0.125 µg/mL: Peptide MIC + Amikacin (bacterial isolates; A. baumannii ABI001) | Peptide MIC + Amikacin (bacterial isolates; E. faecalis EFS008) | Ciprofloxacin MIC + Peptide (bacterial isolates; P. aeruginosa PA4)
1 µg/mL: Ciprofloxacin MIC + Peptide (bacterial isolates; P. aeruginosa PA41) | Peptide MIC + Amikacin (bacterial isolates; S. aureus SA025 MRSA) | Peptide MIC + Gentamicin (bacterial isolates; S. aureus SA025 MRSA)
0.63: FIC (bacterial isolates; peptide + Gentamicin, S. aureus SA025 MRSA)
64 µg/mL: Peptide MIC Alone (bacterial isolates; 3. Ciprofloxacin, P. aeruginosa PA41) | Amikacin MIC + Peptide (bacterial isolates; E. faecium EFM004) | Peptide MIC + Piperacillin (bacterial isolates; H. influenzae 1) | Peptide MIC + Ciprofloxacin (bacterial isolates; P. aeruginosa PA4) | Piperacillin MIC + Peptide (bacterial isolates; S. aureus 19 MRSA) | Piperacillin MIC + Peptide (bacterial isolates; S. aureus SB2MRSA) | Peptide MIC + Amikacin (bacterial isolates; S. epidermidis SE003) | Piperacillin MIC + Peptide (bacterial isolates; S. maltophilia 6) | Amikacin MIC + Peptide (bacterial isolates; S. maltophilia SMA018) | Peptide MIC + Amikacin ([1]; E. faecium EFM020)
0.31: FIC (bacterial isolates; peptide + Piperacillin, H. influenzae 1)
0.51: FIC (bacterial isolates; peptide + Piperacillin, S. aureus 19 MRSA)
32 µg/mL: Amikacin MIC + Peptide (bacterial isolates; A. baumannii ABI001) | Amikacin MIC + Peptide (bacterial isolates; E. faecalis EFS008) | Peptide MIC + Piperacillin (bacterial isolates; H. influenzae 2) | Piperacillin MIC + Peptide (bacterial isolates; H. influenzae 2) | Gentamicin MIC + Peptide (bacterial isolates; S. aureus SA025 MRSA) | Peptide MIC Alone (bacterial isolates; S. aureus SB2MRSA, Piperacillin section) | Peptide MIC Alone (bacterial isolates; S. maltophilia 14, Piperacillin section) | Amikacin MIC + Peptide (bacterial isolates; S. maltophilia SMA022) | Peptide MIC + Amikacin (bacterial isolates; S. maltophilia SMA022)
2 µg/mL: Peptide MIC Alone (bacterial isolates; 1. Amikacin, S. aureus SA025 MRSA) | Peptide MIC + Piperacillin (bacterial isolates; E. coli 1) | Peptide MIC + Amikacin (bacterial isolates; P. aeruginosa PA022) | Peptide MIC + Gentamicin (bacterial isolates; P. aeruginosa PA022) | Peptide MIC + Piperacillin (bacterial isolates; S. aureus 19 MRSA) | Amikacin MIC + Peptide (bacterial isolates; S. aureus SA025 MRSA) | Peptide MIC + Ciprofloxacin (bacterial isolates; S. aureus SA93) | Peptide MIC + Piperacillin (bacterial isolates; S. aureus SB2MRSA) | Amikacin MIC + Peptide ([1]; E. faecium EFM020)
0.27: FIC (bacterial isolates; peptide + Piperacillin, S. marcescens 1)
0.25: FIC (bacterial isolates; peptide + Amikacin, S. maltophilia SMA022)
4 µg/mL: Peptide MIC + Amikacin (bacterial isolates; A. baumannii ABI003) | Peptide MIC Alone (bacterial isolates; E. coli 1, Piperacillin section) | Piperacillin MIC + Peptide (bacterial isolates; H. influenzae 1) | Peptide MIC + Ciprofloxacin (bacterial isolates; S. aureus SA25) | Amikacin MIC + Peptide (bacterial isolates; S. epidermidis SE003) | Piperacillin MIC + Peptide (bacterial isolates; S. maltophilia 14) | Peptide MIC + Amikacin (bacterial isolates; S. maltophilia SMA018) | Peptide MIC + Gentamicin (bacterial isolates; S. maltophilia SMA019) | Peptide MIC + Gentamicin (bacterial isolates; S. maltophilia SMA020) | Peptide MIC + Gentamicin (bacterial isolates; S. maltophilia SMA021) | Peptide MIC + Piperacillin (bacterial isolates; S. marcescens 1)
>128 µg/mL: Peptide MIC Alone (bacterial isolates; 1. Amikacin, E. faecalis EFS008) | Peptide MIC Alone (bacterial isolates; 1. Amikacin, E. faecium EFM004) | Peptide MIC Alone (bacterial isolates; 1. Amikacin, S. epidermidis SE003) | Peptide MIC Alone (bacterial isolates; 1. Amikacin, S. maltophilia SMA022) | Peptide MIC Alone (bacterial isolates; 3. Ciprofloxacin, P. aeruginosa PA4) | Peptide MIC Alone (bacterial isolates; H. influenzae 1, Piperacillin section) | Peptide MIC Alone (bacterial isolates; H. influenzae 2, Piperacillin section) | Peptide MIC Alone (bacterial isolates; P. aeruginosa 23, Piperacillin section) | Peptide MIC Alone (bacterial isolates; S. aureus 19 MRSA, Piperacillin section) | Peptide MIC Alone (bacterial isolates; S. marcescens 1, Piperacillin section) | Peptide MIC Alone ([1]; E. faecalis EFS008)
0.53: FIC (bacterial isolates; peptide + Piperacillin, E. coli 1) | FIC (bacterial isolates; peptide + Piperacillin, S. maltophilia 14)
128 µg/mL: Peptide MIC Alone (bacterial isolates; S. maltophilia 6, Piperacillin section) | Peptide MIC Alone ([1]; E. faecium EFM020)
0.56: FIC (bacterial isolates; peptide + Amikacin, E. faecium EFM004) | FIC (bacterial isolates; peptide + Amikacin, S. aureus SA025 MRSA) | FIC (bacterial isolates; peptide + Gentamicin, A. baumannii ABI002) | FIC (bacterial isolates; peptide + Piperacillin, S. aureus SB2MRSA) | FIC ([1]; E. faecium EFM020)
0.50: FIC (bacterial isolates; peptide + Amikacin, E. faecalis EFS008) | FIC (bacterial isolates; peptide + Amikacin, P. aeruginosa PA022) | FIC (bacterial isolates; peptide + Amikacin, S. maltophilia SMA018) | FIC (bacterial isolates; peptide + Ciprofloxacin, P. aeruginosa PA4) | FIC (bacterial isolates; peptide + Ciprofloxacin, P. aeruginosa PA41) | FIC (bacterial isolates; peptide + Ciprofloxacin, S. aureus SA25) | FIC (bacterial isolates; peptide + Gentamicin, P. aeruginosa PA022) | FIC (bacterial isolates; peptide + Gentamicin, S. maltophilia SMA019) | FIC (bacterial isolates; peptide + Gentamicin, S. maltophilia SMA020) | FIC (bacterial isolates; peptide + Gentamicin, S. maltophilia SMA021)
0.38: FIC (bacterial isolates; peptide + Amikacin, S. epidermidis SE003) | FIC (bacterial isolates; peptide + Ciprofloxacin, S. aureus SA93) | FIC (bacterial isolates; peptide + Piperacillin, H. influenzae 2) | FIC (bacterial isolates; peptide + Piperacillin, S. maltophilia 6)
0.52: FIC (bacterial isolates; peptide + Amikacin, A. baumannii ABI001) | FIC (bacterial isolates; peptide + Amikacin, A. baumannii ABI003)
